Measured values published in ChEMBL document CHEMBL1152309, “Isolation of 2-pyridone alkaloids from a New Zealand marine-derived penicillium species” (J Nat Prod, 2009).
≈ marks a conversion by molar mass, not a printed value.

Experiments:
[1] = test system: P388; assay: Cytotoxicity against mouse P388 cells; format: functional, cell-based
[2] = test system: Bacillus subtilis; assay: Antibacterial activity against Bacillus subtilis at 30 ug/disk by disc-diffusion assay; format: functional; settings: read-out: IZ
[3] = test system: Candida albicans; assay: Antifungal activity against Candida albicans at 30 ug/disk by disc-diffusion assay; format: functional; settings: read-out: IZ

Structure (SMILES)	IC50 [1]	zone of inhibition at 30 µg/disc [2]	zone of inhibition at 30 µg/disc [3]
C[C@@H]1C[C@H](C)[C@@H](c2c(O)cc[nH]c2=O)[C@H](C)[C@@](C)(O)C1 [DEOXYAKANTHOMYCIN]	> 12.5 µg/mL	–	–
C[C@@H]1C[C@H](C)[C@H]2c3c(cc[nH]c3=O)O[C@H](C)[C@@]2(C)C1	> 12.5 µg/mL	–	–
C[C@@H]1C[C@H](C)[C@H]2c3c(ccn(O)c3=O)O[C@H](C)[C@@]2(C)C1	1.8 µg/mL (≈ 6.49 µM)	8 mm	11 mm
